# Earlier results, collected in publication PMC5014611 (Bioorganic & medicinal chemistry, 2016).
# Molecular target: T1, human GIVA cPLA2 (Homo sapiens, UniProt P47712)
# T1 sequence (P47712 1-749): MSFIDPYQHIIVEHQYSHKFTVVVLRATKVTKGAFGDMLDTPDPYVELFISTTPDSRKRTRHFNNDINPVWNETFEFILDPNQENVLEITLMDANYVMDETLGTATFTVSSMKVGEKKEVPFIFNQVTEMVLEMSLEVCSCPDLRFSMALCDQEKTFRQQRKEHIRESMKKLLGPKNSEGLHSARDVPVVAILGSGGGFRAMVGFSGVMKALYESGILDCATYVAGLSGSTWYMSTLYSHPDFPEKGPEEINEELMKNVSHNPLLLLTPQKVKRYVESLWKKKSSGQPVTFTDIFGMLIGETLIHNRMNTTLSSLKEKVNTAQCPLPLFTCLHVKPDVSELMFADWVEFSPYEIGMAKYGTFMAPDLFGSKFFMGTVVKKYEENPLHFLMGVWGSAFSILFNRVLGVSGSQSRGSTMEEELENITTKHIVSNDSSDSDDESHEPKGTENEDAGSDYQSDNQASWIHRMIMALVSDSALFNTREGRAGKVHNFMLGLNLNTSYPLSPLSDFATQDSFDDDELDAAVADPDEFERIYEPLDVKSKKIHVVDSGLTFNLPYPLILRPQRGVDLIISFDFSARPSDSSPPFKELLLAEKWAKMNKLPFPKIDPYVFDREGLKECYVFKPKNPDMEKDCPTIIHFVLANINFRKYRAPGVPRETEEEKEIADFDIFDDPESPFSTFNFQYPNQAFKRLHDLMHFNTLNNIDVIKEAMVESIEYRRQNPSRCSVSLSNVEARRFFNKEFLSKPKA
# Details: commercially available inhibitor
smiles,measurement,value
"CCCCC/C=C\C/C=C\C/C=C\C/C=C\CCCC(=O)C(F)(F)F [AATFMK, arachidonoyl trifluoromethyl ketone]",GIVA cPLA2 XI(50),0.036 mole fraction
